What all share (test): fluorescence light-switch
Assay [1] relates to poly AT (DNA, duplex) ATATATATATATATATATAT
To be noted: 50 mM NaCl, 10 μM complex, 50 μM bp DNA.

The test system of assay [2] is poly T (DNA, single strand) TTTTTTTTTTTTTTTTTTTTT
To be noted: 50 mM NaCl; 5 mM Tris-HCl pH 7.0, 1% DMSO, RT; 10 μM complex, 50 μM DNA; emission near 600 nm.

Assay [3] has as its system poly A poly T (DNA, duplex) AAAAAAAAAAAAAAAAAAAAA/TTTTTTTTTTTTTTTTTTTTT
Particulars: 50 mM NaCl; 5 mM Tris-HCl pH 7.0, 1% DMSO, RT; 10 μM complex, 50 μM bp DNA; emission near 600 nm.

Take `CN(C)Cc1[c-]cccc1.[Pt+2].c1ccc2cc3nc4c5cccnc5c5ncccc5c4nc3cc2c1`: the binding result in assay [1] (5 mM Tris-HCl pH 7.0, 1% DMSO, RT, excimer emission at 599 nm) is reported as “yes”; in assay [2], “yes”; in assay [3], “yes”.

As to `CN(C)Cc1[c-]cccc1.[Pt+2].c1ccc2nc3c4cccnc4c4ncccc4c3nc2c1`, in assay [1] (5 mM Tris-HCl pH 7.0, RT, emission at 431 nm), the binding result is “yes”. Consider `CN(C)Cc1[c-]cccc1.[Pt+2].c1cnc2c(c1)c1nccnc1c1cccnc12`, for which the binding result in assay [1] (5 mM Tris-HCl pH 7.0, RT, emission at 438 nm) is “yes”.

The values above are taken from PMC8456496 (2021).
